For assay [1], the target named is T1, hVR1 receptors (Homo sapiens, UniProt Q8NER1). The experiment in a line: [3H] RTX binding assay, human VR1. More on the design: expressed in transfected cells; host or cells: HEK293 (membrane preparation). Conditions: inhibition of [3H] RTX binding, membranes of HEK293 cells transfected with human VR1. The protocol:
Compounds of the present invention were tested for their ability to inhibit the binding of [^3H] RTX to hVR1 receptors in a [^3H] RTX binding assay as previously described (Zhang, Sui-Po. Improved ligand binding assays for vanilloid receptors. PCT Int. Appl. (2002), 29 pp. CODEN: PIXXD2 WO 0233411 A1 20020425 AN 2002:315209; Grant, Elfrida R.; Dubin, Adrienne E.; Zhang, Sui-Po; Zivin, Robert A.; Zhong, Zhong Simultaneous intracellular calcium and sodium flux imaging in human vanilloid receptor 1 (VR1)-transfected human embryonic kidney cells: a method to resolve ionic dependence of VR1-mediated cell death. Journal of Pharmacology and Experimental Therapeutics (2002), 300(1), 9-17.)
HEK293 cells were transfected with human VR1 vanilloid receptors and washed with Hank's Balanced Salt Solution, dissociated with cell dissociation buffer (Sigma), and then centrifuged at 1000×g for 5 min. Cell pellets were homogenized in cold 20 mM HEPES buffer, pH 7.4, containing 5.8 mM NaCl, 320 mM sucrose, 2 mM MgCl2, 0.75 CaCl2 and 5 mM KCl and centrifuged at 1000×g for 15 min. The resultant supernate was then centrifuged at 40000×g for 15 min. The pelleted membranes were kept in an −80° C. freezer.
Approximately 120 μg protein/ml from membranes were incubated with indicated concentrations of [^3H] RTX in 0.5 ml of the HEPES buffer (pH 7.4) containing 0.25 mg/mL fatty acid-free bovine serum albumin at 37° C. for 60 min. The reaction mixture was then cooled to 4° C., 0.1 mg α1-acid glycoprotein added to each sample and incubated at 4° C. for 15 min. The samples were centrifuged at 18500×g for 15 min. The tip of the microcentrifuge tube containing the pellet was cut off. Bound radioactivity was quantified by scintillation counting. Non-specific binding was tested in the presence of 200 nM unlabeled RTX.

Assay [2] relates to carrageenan paw-induced thermal hyperalgesia. In words: Carrageenan paw-induced thermal hyperalgesia. Particulars: for % Recovery: at 1 mg/ml; for ED50: Rattus norvegicus, po. Format: in vivo, rat. The protocol: Each rat was placed on a heated surface (51° C.) in order to measure the time necessary to elicit a response, and an initial (baseline) response time to a thermal stimuli was recorded for each animal. A response is defined as any shaking, licking, or tucking of the treated paw or jumping. Animals not treated with a test compound respond in approximately 20 seconds. The maximal exposure time permitted is 60 seconds to prevent tissue damage. Rats were injected with an irritant (e.g., 1% carrageenan solution in 0.9% saline) subcutaneously into the sub-plantar tissue of the left hind paw to stimulate an acute inflammatory reaction.
Two hours later, the response time of the animal to the thermal stimulus was evaluated and compared to the animal's baseline response time. This shorter response time was recorded as percent hyperalgesia (% H). A cut-off value for % H (usually 75%) was used during analysis to ensure that the animals were hyperalgesic. Animals were then dosed with test drug or vehicle.
At some time(s) later (typically 45 and 90 minutes), the response time of the animal to the thermal stimulus was again evaluated. For each time point, a percent reversal of hyperalgesia (% R) was calculated using the following formula: % R=(Drug Latency−Carrageenan latency)/(Baseline latency−Carrageenan latency). ED50 values were calculated from % R obtained at several drug doses.
(The carrageenan paw model is a standard test of acute inflammation.)

A further assay deals with Rat VR1 (Rattus norvegicus, UniProt O35433). The experiment in a line: [3H]-RTX binding assay using rat tissue (spinal cord). Conditions: rat spinal cord membranes. Also on record: Rat spinal cord was homogenized twice with a Polytron; from tissue; host or cells: rat spinal cord membranes. The protocol: Alternatively, a binding assay using rat tissue was used. Rat spinal cord was homogenized twice with a Polytron and centrifuged at 3000 rpm for 10 min in HEPES buffer containing 20 mM HEPES, pH 7.4, NaCl 5.8 mM, sucrose 320 mM, MgCl2 2 mM, CaCl2 0.75 mM and KCl 5 mM. The supernatant was then centrifuged at 18,000 rpm for 20 min. The pellet was saved in a tube and 10 ml assay buffer was added into the tube. The pellet and buffer were mixed with a Polytron. The assay contained 120 μg/ml membrane protein and 0.3-0.6 nM [^3H]-RTX (NEN, Boston) in a total volume of 0.5 ml HEPES buffer. Following-incubation for 60 min at 37 C, the samples were cooled down on ice, and 100 mg of α-acid glycoprotein were added into the samples. After centrifugation at 13,000 rpm for 15 min, the supernatant was aspirated and the tips of tubes were cut off and placed into 6 ml vials. Data were calculated according to the equation: % inhibition=(total binding−binding)*100/(total binding−non specific binding). Ki value values were calculated using a Prism program.
Rat VR1, sequence (O35433 whole entry): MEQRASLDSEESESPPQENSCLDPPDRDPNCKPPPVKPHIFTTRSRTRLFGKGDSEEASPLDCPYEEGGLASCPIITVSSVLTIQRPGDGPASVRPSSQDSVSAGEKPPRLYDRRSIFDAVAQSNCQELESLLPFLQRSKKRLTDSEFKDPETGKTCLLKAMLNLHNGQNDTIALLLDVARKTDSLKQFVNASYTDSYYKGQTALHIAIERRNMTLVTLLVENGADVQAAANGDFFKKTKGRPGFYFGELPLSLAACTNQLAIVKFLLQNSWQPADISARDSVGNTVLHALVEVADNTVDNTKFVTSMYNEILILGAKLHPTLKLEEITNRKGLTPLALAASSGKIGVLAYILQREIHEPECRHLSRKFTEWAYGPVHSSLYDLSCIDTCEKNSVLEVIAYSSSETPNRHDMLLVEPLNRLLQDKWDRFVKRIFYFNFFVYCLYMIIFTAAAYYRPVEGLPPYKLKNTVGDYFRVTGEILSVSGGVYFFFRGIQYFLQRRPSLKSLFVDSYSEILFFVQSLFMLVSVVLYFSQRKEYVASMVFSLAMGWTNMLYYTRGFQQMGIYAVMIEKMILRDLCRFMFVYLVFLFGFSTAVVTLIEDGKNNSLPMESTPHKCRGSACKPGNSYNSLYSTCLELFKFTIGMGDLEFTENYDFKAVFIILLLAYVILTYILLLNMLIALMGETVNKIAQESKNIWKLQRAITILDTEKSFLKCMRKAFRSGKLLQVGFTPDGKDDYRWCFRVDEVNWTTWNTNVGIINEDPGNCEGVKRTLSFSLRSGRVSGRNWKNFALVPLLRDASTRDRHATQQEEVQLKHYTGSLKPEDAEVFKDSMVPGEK

The target in assay [3] is T2, VR1 expressed endogenously on small rat dorsal root ganglion (DRG) neurons (Rattus norvegicus, UniProt O35433).
T2 construct: VR1 expressed endogenously on small rat dorsal root ganglion (DRG) neurons; endogenous in cells; host or cells: dissociated DRG neurons from normal rats
T2 sequence (O35433 whole entry): as above
The experiment in a line: Electrophysiologic functional assay using dissociated rat DRG cells (whole cell patch clamp). Format: cell-based. Particulars: for inhibition of the response to 1 uM capsaicin: capsaicin-induced currents in rat DRG neurons; for % of the initial CAP response in presence of 1 uM CAP / % of the initial CAP response in presence of 10 uM CAP: initial response to 0.3 uM capsaicin. As for the experimental part:
Compounds 42, 95, 101, 105 and 106 were tested for their activity on VR1 expressed endogenously on small rat dorsal root ganglion (DRG) neurons. DRG neurons from normal rats were dissociated (see methods in Chaplan et al., 2003) and whole cell currents mediated by VR1 were recorded using the whole cell patch clamp technique. […] This was followed by application of 10 μM CAP in the presence of compound. […] The ability of 1 and 10 μM CAP to cause an increased current after exposure to a compound of the invention was compared to controls.

For assay [4], the target named is T1, hVR1 receptors. In words: Broadly stimulated recombinant human VR1 functional assay (Ca2+ influx, FLIPR). Format: cell-based. Also on record: expressed in transfected cells; host or cells: HEK293.
Where [5] appears, read: reversal of hyperalgesia, read-out: CgHP ED50.
[6] abbreviates: 1.5 h, p.o., at 90 min, read-out: ED50.

We go through 21 molecules from patent US7678812B2, “Aminotetralin-derived urea modulators of vanilloid VR1 receptor” (Janssen Pharmaceutica NV, priority 2002, dated 2010).

One may read the Ki as a measure of affinity in units of concentration, obtained from inhibition or displacement. Read a low Ki as a stronger hold on the target. Usually ED50 stands for the dose at which the effect has come halfway, by size or by number of responders.

Like-named read-outs stand apart in the source and are kept apart here.

T1 sequence (Q8NER1 whole entry): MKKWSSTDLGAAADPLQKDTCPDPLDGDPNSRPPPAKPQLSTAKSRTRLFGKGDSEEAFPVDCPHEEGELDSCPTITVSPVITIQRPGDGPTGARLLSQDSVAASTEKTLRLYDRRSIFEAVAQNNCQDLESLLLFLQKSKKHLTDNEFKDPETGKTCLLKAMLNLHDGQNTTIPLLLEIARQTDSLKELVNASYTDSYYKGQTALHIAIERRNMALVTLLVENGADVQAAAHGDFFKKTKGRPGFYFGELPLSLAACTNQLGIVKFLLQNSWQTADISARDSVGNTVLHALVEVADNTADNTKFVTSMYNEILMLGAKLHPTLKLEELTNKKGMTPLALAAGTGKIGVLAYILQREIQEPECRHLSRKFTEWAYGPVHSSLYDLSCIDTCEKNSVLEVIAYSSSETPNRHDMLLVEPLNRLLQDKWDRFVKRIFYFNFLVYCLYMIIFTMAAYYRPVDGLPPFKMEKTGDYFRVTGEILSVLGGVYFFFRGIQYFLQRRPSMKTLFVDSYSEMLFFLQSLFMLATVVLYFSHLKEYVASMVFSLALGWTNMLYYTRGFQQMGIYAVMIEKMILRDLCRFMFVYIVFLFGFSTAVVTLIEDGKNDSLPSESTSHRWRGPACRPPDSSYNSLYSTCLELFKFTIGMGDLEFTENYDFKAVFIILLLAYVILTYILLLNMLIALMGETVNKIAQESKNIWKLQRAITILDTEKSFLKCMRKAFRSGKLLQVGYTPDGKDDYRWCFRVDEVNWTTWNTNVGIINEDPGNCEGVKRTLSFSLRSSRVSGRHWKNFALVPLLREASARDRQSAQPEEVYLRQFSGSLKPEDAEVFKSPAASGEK

In the case of `O=C(Nc1cccc2cnccc12)NC1CCc2cc(F)ccc2C1Cc1cccc(C(F)(F)F)c1` (racemic) [Compound 110], the Ki amounted to 0.531 nM on hVR1 receptors [1] and 185 nM on Rat VR1. Besides, in assay [2] (at 90 min), the “% Recovery” value was 64.3%.

Regarding `O=C(Nc1cccc2cnccc12)N[C@@H]1CCc2cc(F)ccc2[C@@H]1Cc1ccoc1` (relative stereo) [Compound 88], the Ki on hVR1 receptors [1] turned out to be 15.5 nM; on Rat VR1, 1270 nM.

`COc1ccc2c(c1)CC[C@@H](NC(=O)Nc1cccc3cnccc13)[C@H]2Cc1ccc(F)cc1F` (relative stereo) [Compound 90] had a Ki on Rat VR1 of 259 nM.

With `COc1ccc2c(c1)CC[C@@H](NC(=O)Nc1cccc3cnccc13)[C@@H]2Cc1ccc(F)cc1F` (relative stereo) [Compound 91], the Ki at Rat VR1 turned out to be 1480 nM.

For `Cc1cc2c(NC(=O)NC3CCc4cc(F)ccc4C3Cc3ccccc3)cccc2cn1` (single isomer, unassigned) [Compound 100], the Ki at hVR1 receptors [1] was 5.25 nM; at Rat VR1 it was 781 nM.

On to `Cc1cc2c(NC(=O)NC3CCc4cc(F)ccc4C3Cc3ccccc3)cccc2cn1` (single isomer, unassigned) [Compound 101], for which the results for the Ki on hVR1 receptors [1] and on Rat VR1 were 1.12 nM and 53.1 nM, respectively. For the same molecule, the “inhibition of the response to 1 uM capsaicin” value in assay [3] is listed as “dose dependent”. The results for the “% of the initial CAP response in presence of 1 uM CAP” value in assay [3] (compound concentration 0.03 uM) and in assay [3] (compound concentration 0.1 uM) were 14% and 0%, respectively. Besides, the “% of the initial CAP response in presence of 10 uM CAP” value in assay [3] (compound concentration 0.03 uM) is recorded as 54%; in assay [3] (compound concentration 0.1 uM), 0%.

In the case of `O=C(Nc1cccc2cnccc12)NC1CCc2cc(F)ccc2C1Cc1cccc(C(F)(F)F)c1` (single isomer, unassigned) [Compound 118], the figures for the Ki on hVR1 receptors [1] and on Rat VR1 were 2.16 nM and 169 nM, respectively.

Regarding `O=C(Nc1cccc2cnccc12)NC1CCc2cc(F)ccc2C1Cc1cccc(C(F)(F)F)c1` (single isomer, unassigned) [Compound 119], the Ki on hVR1 receptors [1] was found to be 0.5 nM; on Rat VR1 it was 152 nM.

As to `O=C(Nc1cccc2c[n+]([O-])ccc12)NC1CCc2cc(F)ccc2C1Cc1cccc(C(F)(F)F)c1` (single isomer, unassigned) [Compound 120], the results for the Ki at hVR1 receptors [1] and at Rat VR1 were 95.7 nM and 10000 nM, respectively. For the same molecule, the “% Recovery” value in assay [2] (at 90 min) came out at 83.0%.

With `O=C(Nc1cccc2c[n+]([O-])ccc12)NC1CCc2cc(F)ccc2C1Cc1cccc(C(F)(F)F)c1` (single isomer, unassigned) [Compound 121], the Ki on hVR1 receptors [1] was 5.75 nM; on Rat VR1, 88.5 nM. The “% Recovery” value in assay [2] (at 90 min) was 80.1%.

On to `Oc1cc2c(cc1O)CN(C(=S)NCCc1ccc(Cl)cc1)CCC2` [Capsazepine, capsazepine, reference compound], for which the IC50 on hVR1 receptors [4] (human recombinant receptor, FIG. 1, read-out: potency to inhibit Ca2+ activity induced by the panel of stimuli) lay in the range of 100 to 300 nM.

Consider `COCOc1ccc(CNC(=S)NC2CCc3ccccc3C2Cc2cccnc2)cc1OC` (centres unmarked) [Compound 4], for which the ED50 in assay [2] (setting [5]) was found to be 0.804 mg/kg.

In the case of `COc1ccc2c(c1)CCC(NC(=S)NCCc1ccc(Cl)cc1)C2Cc1ccccc1` (centres unmarked) [Compound 17], the 50% effective dose (ED50) in assay [2] (setting [5]) turned out to be 20 mg/kg.

On hVR1 receptors [1], `O=C(Nc1cccc2cnccc12)NC1CCc2c(Cl)cccc2C1Cc1ccccc1` (centres unmarked) [Compound 42] came in with a Ki of 1.94 nM. The “% of the initial CAP response in presence of 1 uM CAP” value in assay [3] (compound concentration 0.3 uM) is 0%.

At hVR1 receptors [1], `C=CCC1c2ccccc2CCC1NC(=O)Nc1cccc2cnccc12` (centres unmarked) [Compound 57] registered a Ki of 15.4 nM. For the same molecule, in assay [2] (setting [5]), the ED50 is 0.354 mg/kg.

Regarding `COc1ccc2c(c1)CCC(NC(=O)Nc1cccc3cnccc13)C2Cc1ccsc1` (centres unmarked) [Compound 89], the Ki at Rat VR1 came out at 1080 nM.

Turning to `O=C(Nc1cccc2cnccc12)NC1CCc2cc(Cl)ccc2C1Cc1ccccc1` (centres unmarked) [Compound 95], the Ki was determined as 1.7 nM on hVR1 receptors [1] and 217 nM on Rat VR1. In assay [3], the “inhibition of the response to 1 uM capsaicin” value is “dose dependent”. The “% of the initial CAP response in presence of 1 uM CAP” value in assay [3] (compound concentration 0.03 uM) was 78%. The “% of the initial CAP response in presence of 10 uM CAP” value in assay [3] (compound concentration 0.03 uM) is listed as 1073%.

Regarding `O=C(Nc1cccc2c[n+]([O-])ccc12)NC1CCc2cc(Cl)ccc2C1Cc1ccccc1` (centres unmarked) [Compound 106], the Ki at hVR1 receptors [1] was found to be 8.6 nM; at Rat VR1, 2840 nM. Further, the ED50 in assay [2] (setting [6]) was determined as 0.027 mg/kg. The “% of the initial CAP response in presence of 1 uM CAP” value in assay [3] (compound concentration 1 uM) was 2%. The “% of the initial CAP response in presence of 10 uM CAP” value in assay [3] (compound concentration 1 uM) is 11%.

Take `O=C(Nc1cccc2cnccc12)NC1CCc2cc(F)ccc2C1Cc1ccc(C(F)(F)F)cc1` (centres unmarked) [Compound 107]: the figures for the Ki at hVR1 receptors [1] and at Rat VR1 were 0.93 nM and 28.7 nM, respectively. Further, in assay [2] (setting [6]), the ED50 was found to be 0.92 mg/kg.

Take `O=C(Nc1cccc2cnccc12)NC1CCc2ccccc2C12Cc1ccccc1C2` (centres unmarked) [Compound 122, Spiro{indan-2,1′-(1′,2′,3′,4′-tetrahydronaphthalene)-2′-yl}-3-isoquinolin-5-yl-urea]: the results for the Ki on hVR1 receptors [1] and at Rat VR1 were 73 nM and 1700 nM, respectively.

Consider `OO` [Compound H2O2, H2O2, reference compound], for which, at hVR1 receptors [4] (VR1/HEK cells, species not stated), the “EC80 for H2O2-induced Ca2+ flux” value came out at 0.015 % H2O2.
